Test results reported in the supplement of paper PMC11208160.

Assay: recombinant barcode read abundance after kanamycin selection (control-corrected) (log10(CPM+1)); higher = more efficient recombination; sequences stand for … in AGTGCAGAGAAAATCGGCCAGTTTTCTCTGCCTGCAGTCCGCATGCCGT…AGATTTATGCAGCGGACTGCCTTTCTCCCAAAGTGATAAACCGGACAGTATCATGGACCGGTTTTCCCGGTAATCCGTATTTGCAAGGTTGGTTTCACT; site = the 11-nt target
In short: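 The screen was pooled in E. coli and paired targets with IS621 bridge RNA target-binding loops. Recombination efficiency is taken from barcode counts per million at recombinant junctions, averaged and adjusted against the control. Values, in the form log10(CPM+1), come from duplicate plating on chloramphenicol/ampicillin LB agar or on chloramphenicol/ampicillin/kanamycin with 0.1 mM IPTG.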
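Note: IS621 recombinase and bridge RNA in Escherichia coli cells.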

Going from “CTACGAACTTGGGTTCTAACCTGTTGCGG (site TGGACCTCTTG)” to “CTACGACCTTGGGTTCTAACCTGTTGCAG (site CTACGACCTCT)”, the “recombinant barcode read abundance (log10)” value rises from 0.181 to 2.56.

Compared with “CTACGACCTTGGGTTCTAACCTGTTGCAG (site TACGATACTAC)”, “CTACGACCTTGGGTTCTAACCTGTTGCGG (site CTACGACCTCC)” is higher in “recombinant barcode read abundance (log10)” value: 0.186 for the first, 2.9 for the second.

Compared with “CTACGACCTTGGGTTCTAACCTGTTGCGG (site TACAAGTCTAG)”, “CTACGCGCTTGGGTTCTAACCTGTTGCTT (site CTACGCGCTAA)” is higher in “recombinant barcode read abundance (log10)” value: 0.164 for the first, 0.921 for the second.

First: CTACGCGCTTGGGTTCTAACCTGTTGCTT (site GTACGCGCTAC)
Second: CTACGGCCTTGGGTTCTAACCTGTTGCGT (site CTACGGCCTAC)
The “recombinant barcode read abundance (log10)” value of the first is lower: 0.309 for the first, 1.05 for the second.

Compared with “CTACGGCCTTGGGTTCTAACCTGTTGCGT (site GGACGGCCTAC)”, “CTAGACTCTTGGGTTCTAACCTGTTGCAC (site CTAGACTCTAT)” is higher in “recombinant barcode read abundance (log10)” value: 0.281 for the first, 0.626 for the second.

Going from “CTAGACTCTTGGGTTCTAACCTGTTGCAC (site CTAGACTCTCT)” to “CTAGACTCTTGGGTTCTAACCTGTTGCAC (site CTAGACTCTGT)”, the “recombinant barcode read abundance (log10)” value rises from 0.0956 to 2.77.

Going from “CTAGACTCTTGGGTTCTAACCTGTTGCAC (site CTAGACTCTTT)” to “CTAGACTCTTGGGTTCTAACCTGTTGCAG (site CTAGACTCTAT)”, the “recombinant barcode read abundance (log10)” value rises from 0.11 to 0.88.

Compared with “CTAGACTCTTGGGTTCTAACCTGTTGCAG (site CTAGACTCTCT)”, “CTAGACTCTTGGGTTCTAACCTGTTGCAG (site CTAGACTCTGT)” is lower in “recombinant barcode read abundance (log10)” value: 2.42 for the first, 1.16 for the second.

“CTAGACTCTTGGGTTCTAACCTGTTGCAG (site CTAGACTCTTT)” and “CTAGCGACTTGGGTTCTAACCTGTTGCAC (site AGGAGAGCTAA)” are within 0.2 log units of each other in “recombinant barcode read abundance (log10)” value: 0.376 for the first, 0.409 for the second.

First: CTAGCGACTTGGGTTCTAACCTGTTGCAC (site CTAGCGACTGT)
Second: CTAGCGACTTGGGTTCTAACCTGTTGCCG (site ACGCTATCTAA)
The “recombinant barcode read abundance (log10)” value of the first is higher: 1.15 for the first, 0.102 for the second.

Compared with “CTAGCGACTTGGGTTCTAACCTGTTGCCG (site CTAGCGACTCG)”, “CTAGCTCCTTGGGTTCTAACCTGTTGCTT (site CTAGCTCCTAA)” is lower in “recombinant barcode read abundance (log10)” value: 0.834 for the first, 0.0882 for the second.

“CTAGCTCCTTGGGTTCTAACCTGTTGCTT (site GCTTGGTCTTC)” and “CTAGGAGCTTGGGTTCTAACCTGTTGCCT (site CTAGGACCTTG)” are within 0.2 log units of each other in “recombinant barcode read abundance (log10)” value: 0.0776 for the first, 0.0183 for the second.

“CTAGGAGCTTGGGTTCTAACCTGTTGCCT (site CTAGGAGCTAG)” and “CTAGGAGCTTGGGTTCTAACCTGTTGCTA (site CTAGGAGCTAA)” are within 0.2 log units of each other in “recombinant barcode read abundance (log10)” value: 0.148 for the first, 0.137 for the second.

“CTAGGAGCTTGGGTTCTAACCTGTTGCTA (site CTAGGAGCTCA)” and “CTAGGAGCTTGGGTTCTAACCTGTTGCTA (site CTAGGAGCTGA)” are within 0.2 log units of each other in “recombinant barcode read abundance (log10)” value: 0.231 for the first, 0.0444 for the second.

First: CTAGGAGCTTGGGTTCTAACCTGTTGCTA (site CTAGGAGCTTA)
Second: CTAGGAGCTTGGGTTCTAACCTGTTGCTG (site CTAGGAGCTAA)
The “recombinant barcode read abundance (log10)” value of the first is higher: 1.23 for the first, 0.19 for the second.

Going from “CTAGGAGCTTGGGTTCTAACCTGTTGCTG (site CTAGGAGCTCA)” to “CTAGGAGCTTGGGTTCTAACCTGTTGCTG (site CTAGGAGCTGA)”, the “recombinant barcode read abundance (log10)” value falls from 1.75 to 0.169.

Going from “CTAGGAGCTTGGGTTCTAACCTGTTGCTG (site CTAGGAGCTTA)” to “CTAGGATCTTGGGTTCTAACCTGTTGCCA (site CTAGGATCTAT)”, the “recombinant barcode read abundance (log10)” value rises from 0.073 to 0.844.

“CTAGGATCTTGGGTTCTAACCTGTTGCCA (site CTAGGATCTTG)” and “CTAGGCCCTTGGGTTCTAACCTGTTGCGT (site CTAGGCCCTAA)” are within 0.2 log units of each other in “recombinant barcode read abundance (log10)” value: 0.24 for the first, 0.361 for the second.

First: CTAGGCCCTTGGGTTCTAACCTGTTGCGT (site CTAGGCCCTAC)
Second: CTAGGCCCTTGGGTTCTAACCTGTTGCGT (site CTAGGCCCTAG)
The “recombinant barcode read abundance (log10)” value of the first is higher: 3.3 for the first, 0.264 for the second.

Going from “CTAGGCCCTTGGGTTCTAACCTGTTGCGT (site CTAGGCCCTAT)” to “CTAGTAGCTTGGGTTCTAACCTGTTGCCG (site CTAGTAGCTCG)”, the “recombinant barcode read abundance (log10)” value falls from 2.28 to 1.84.

First: CTAGTAGCTTGGGTTCTAACCTGTTGCCG (site CTATTAGCTCG)
Second: CTAGTAGCTTGGGTTCTAACCTGTTGCGT (site CTAGTAGCTAC)
The “recombinant barcode read abundance (log10)” value of the first is lower: 0.277 for the first, 2.25 for the second.

First: CTAGTAGCTTGGGTTCTAACCTGTTGCGT (site CTAGTAGCTCC)
Second: CTAGTCTCTTGGGTTCTAACCTGTTGCGT (site CTAGGATCTAC)
The “recombinant barcode read abundance (log10)” value of the first is higher: 0.378 for the first, 0.0308 for the second.

First: CTAGTCTCTTGGGTTCTAACCTGTTGCGT (site CTAGTCTCTAC)
Second: CTAGTGACTTGGGTTCTAACCTGTTGCGC (site CTAGTGACTAC)
The “recombinant barcode read abundance (log10)” value of the first is higher: 3.07 for the first, 0.0258 for the second.

Compared with “CTAGTGACTTGGGTTCTAACCTGTTGCGC (site CTAGTGACTCC)”, “CTAGTGACTTGGGTTCTAACCTGTTGCGC (site CTAGTGACTGC)” is higher in “recombinant barcode read abundance (log10)” value: 0.0835 for the first, 2.12 for the second.

Going from “CTAGTGACTTGGGTTCTAACCTGTTGCGC (site CTAGTGACTTC)” to “CTAGTGACTTGGGTTCTAACCTGTTGCGT (site CTAGTGACTAC)”, the “recombinant barcode read abundance (log10)” value rises from 0.127 to 1.17.

Going from “CTAGTGACTTGGGTTCTAACCTGTTGCGT (site CTAGTGACTCC)” to “CTAGTGACTTGGGTTCTAACCTGTTGCGT (site CTAGTGACTGC)”, the “recombinant barcode read abundance (log10)” value falls from 0.313 to 0.0977.

First: CTAGTGACTTGGGTTCTAACCTGTTGCGT (site CTAGTGACTTC)
Second: CTATACTCTTGGGTTCTAACCTGTTGCCA (site CTATACTCTTG)
The “recombinant barcode read abundance (log10)” value of the first is lower: 0.00958 for the first, 1.03 for the second.

Going from “CTATACTCTTGGGTTCTAACCTGTTGCCA (site CTATTCTCTTA)” to “CTATATGCTTGGGTTCTAACCTGTTGCTT (site CTATATGCTAA)”, the “recombinant barcode read abundance (log10)” value rises from 0.195 to 0.613.

“CTATATGCTTGGGTTCTAACCTGTTGCTT (site TAGACCACTGT)” and “CTATCGCCTTGGGTTCTAACCTGTTGCCT (site CTATCGCCTAG)” are within 0.2 log units of each other in “recombinant barcode read abundance (log10)” value: 0.449 for the first, 0.496 for the second.

“CTATCGCCTTGGGTTCTAACCTGTTGCCT (site CTCTCGCCTAG)” and “CTATCGCCTTGGGTTCTAACCTGTTGCCT (site CTGTCGCCTAG)” are within 0.2 log units of each other in “recombinant barcode read abundance (log10)” value: 0.238 for the first, 0.0772 for the second.

Compared with “CTATCGCCTTGGGTTCTAACCTGTTGCCT (site CTTTCGCCTAG)”, “CTATTATCTTGGGTTCTAACCTGTTGCCT (site CTATTATCTAG)” is higher in “recombinant barcode read abundance (log10)” value: 0.0941 for the first, 0.935 for the second.

Going from “CTATTATCTTGGGTTCTAACCTGTTGCCT (site CTGTTATCTAG)” to “CTATTCTCTTGGGTTCTAACCTGTTGCCT (site CTATTCACTAG)”, the “recombinant barcode read abundance (log10)” value rises from 0.0433 to 0.472.

“CTATTCTCTTGGGTTCTAACCTGTTGCCT (site CTATTCCCTAG)” and “CTATTCTCTTGGGTTCTAACCTGTTGCCT (site CTATTCGCTAG)” are within 0.2 log units of each other in “recombinant barcode read abundance (log10)” value: 0.188 for the first, 0.011 for the second.

First: CTATTCTCTTGGGTTCTAACCTGTTGCCT (site CTATTCTCTAG)
Second: CTATTTGCTTGGGTTCTAACCTGTTGCAA (site CTAATTGCTTT)
The “recombinant barcode read abundance (log10)” value of the first is higher: 2.03 for the first, 0.0524 for the second.

“CTATTTGCTTGGGTTCTAACCTGTTGCAA (site CTACTTGCTTT)” and “CTATTTGCTTGGGTTCTAACCTGTTGCAA (site CTAGTTGCTTT)” are within 0.2 log units of each other in “recombinant barcode read abundance (log10)” value: 0.103 for the first, 0.0402 for the second.

“CTATTTGCTTGGGTTCTAACCTGTTGCAA (site CTATTTGCTTT)” and “CTCATTCCTTGGGTTCTAACCTGTTGCGT (site CTCATTCCTAA)” are within 0.2 log units of each other in “recombinant barcode read abundance (log10)” value: 0.0441 for the first, 0.00984 for the second.

Going from “CTCATTCCTTGGGTTCTAACCTGTTGCGT (site CTCATTCCTAC)” to “CTCATTCCTTGGGTTCTAACCTGTTGCGT (site CTCATTCCTAG)”, the “recombinant barcode read abundance (log10)” value falls from 1.4 to 0.0869.

“CTCATTCCTTGGGTTCTAACCTGTTGCGT (site CTCATTCCTAT)” and “CTCCATTCTTGGGTTCTAACCTGTTGCAT (site CTCAATTCTAT)” are within 0.2 log units of each other in “recombinant barcode read abundance (log10)” value: 0.212 for the first, 0.217 for the second.

For “CTCCATTCTTGGGTTCTAACCTGTTGCAT (site CTCCATTCTAT)”, the “recombinant barcode read abundance (log10)” value was 1.74.
